What all share (assay): growth of human tumour cells (NCI), 48 h
Assay [1] relates to BT-549 breast.
The test system of assay [2] is EKVX NSCLC.
In assay [3] the test system is MALME-3M melanoma.
The test system of assay [4] is MCF7 breast.
The test system of assay [5] is NCI/ADR-RES ovarian.
Assay [6] has as its system OVCAR-4 ovarian.
In assay [7] the test system is OVCAR-5 ovarian.
The subject of assay [8] is SK-MEL-5 melanoma.
In assay [9] the test system is SN12C renal.
Assay [10] concerns UO-31 renal.

The record followed here is PubChem BioAssay (NCI).

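Compound exposure: 48 hours, 5 concentrations, 96-well plates. GI50: concentration for 50% inhibition of growth. The concentration for full growth arrest is given as TGI.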

Take `CSC(=S)Nc1cc(C)cc(C)n1`: the TGI is greater than 100 µM in [1]; greater than 31.6 µM in assay [2]; greater than 31.6 µM in assay [3]; greater than 31.6 µM in assay [4]; greater than 31.6 µM in [5]; greater than 31.6 µM in [6]. Also, the TGI was greater than 31.6 µM in assay [7], greater than 100 µM in assay [8], greater than 31.6 µM in [9] and greater than 31.6 µM in assay [10].
In the case of `O=C(NCCN1CCOCC1)OCc1nc2nc(Cl)nc(N3CCOCC3)c2[nH]1`, the GI50 was 3.48 µM in assay [1]; greater than 100 µM in assay [2]; 4410 nM in assay [3]; 2020 nM in [4]; 0.566 µM in [5]; 9.69 µM in assay [6]. Further, the GI50 in assay [7] was 4.42 µM; in assay [8] it was 2100 nM; in [9] it was 2160 nM; in assay [10], 4250 nM. The TGI in assay [1], in assay [2], in assay [3], in assay [4], in assay [5] and in assay [6] was greater than 100 µM in each case. The TGI was greater than 100 µM in assay [7], 4.72 µM in assay [8], greater than 100 µM in assay [9] and greater than 100 µM in assay [10].
As for `COc1cc(/C=C/c2ccc(C)cc2)cc(OC)c1OC`, the TGI in assay [1] is 19 µM; in assay [2], greater than 100 µM; in [3], 10.5 µM; in assay [4], 45.3 µM; in assay [5] it was 4.9 µM; in assay [6] it was 44.7 µM. The TGI in assay [7] was determined as 21.9 µM; in assay [8], 13.3 µM; in assay [9], 30.1 µM; in assay [10], 23.6 µM.
In the case of `CCOc1ccc2c(-c3ccnc(Nc4cc(OC)cc(C(F)(F)F)c4)n3)cnn2n1`, the GI50 was 18.2 µM in assay [1]; greater than 25 µM in [2]; greater than 25000 nM in [3]; 1130 nM in assay [4]; 4.66 µM in assay [5]; greater than 15.8 µM in assay [6]. In addition, the GI50 in assay [7] was greater than 25 µM; in assay [8] it was greater than 14800 nM; in assay [9] it was greater than 25000 nM; in assay [10] it was greater than 25000 nM. Further, the TGI in [1], in assay [2], in assay [3], in assay [4], in assay [5] and in assay [6] was greater than 25 µM in each case. Also, the TGI in assay [7], in [8], in [9] and in assay [10] was greater than 25 µM throughout.
With `N#Cc1nc(-c2ccc(F)cc2)oc1S(=O)(=O)N1CCCCC1`, the GI50 was 2.24 µM in assay [1]; 1.86 µM in assay [2]; 1690 nM in assay [3]; 1690 nM in assay [4]; 4.97 µM in [5]; 2.19 µM in assay [6]. In addition, the GI50 was 1.71 µM in assay [7], 1810 nM in assay [8], 1650 nM in assay [9] and 1580 nM in [10]. Moreover, the TGI was 5.74 µM in assay [1]; 3.96 µM in [2]; 3.37 µM in assay [3]; 3.82 µM in [4]; greater than 100 µM in assay [5]; 4.76 µM in assay [6]. For the same molecule, the TGI in assay [7] is 3.32 µM; in [8], 3.36 µM; in assay [9], 3.11 µM; in assay [10] it was 2.93 µM.
On to `CNC(=O)NCC1OC(n2cnc3c(NC(=O)Nc4ccccc4)ncnc32)C(O[Si](C)(C)C(C)(C)C)C1O[Si](C)(C)C(C)(C)C` (stereo not given), for which the GI50 in assay [1] was 2.94 µM; in assay [2], 3.7 µM; in assay [3], 2980 nM; in [4] it was 2690 nM; in assay [5] it was 3.72 µM; in assay [6], 3.44 µM. Also, the GI50 in assay [7] was 5.24 µM; in assay [8], 1980 nM; in assay [9], 1810 nM; in assay [10], 2500 nM. Further, the TGI in assay [1] came to 8.18 µM; in assay [2] it was 30.6 µM; in [3] it was 9.84 µM; in [4] it was 19.4 µM; in [5] it was 20.7 µM; in assay [6], 43.9 µM. In addition, the TGI in [7] stood at 25.2 µM; in [8], 4.75 µM; in [9], 3.38 µM; in assay [10], 9.56 µM.
